Eleven molecules from patent publication US9810690B2, “Method for screening inhibitors of Ras” (Araxes Pharma LLC, priority 2015, dated 2017) can be followed below.

Bounds are passed on as bounds.

Test [1] addresses T1, RALA G23C (Homo sapiens, UniProt P11233, G23C).
T1 construct: (residues 11-183, either WT or G23C); hexahistidine (TEV-cleavable); made in house; host or cells: Escherichia coli BL21 (DE)
T1 sequence (P11233 11-183 G23C): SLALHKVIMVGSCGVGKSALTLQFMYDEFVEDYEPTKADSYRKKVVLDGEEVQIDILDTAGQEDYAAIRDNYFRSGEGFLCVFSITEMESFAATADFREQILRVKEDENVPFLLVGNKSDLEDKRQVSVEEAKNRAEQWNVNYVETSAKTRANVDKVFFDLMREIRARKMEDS
The experiment in a line: Rate constant of covalent reaction of competition probes with RALA mutant (mass spectrometry). It is filed as binding. The protocol: Hexahistidine-tagged recombinant human RalA (“hexahistidine” disclosed as SEQ ID NO: 49) (residues 11-183, either WT or G23C) was transformed into Escherichia coli (BL21 (DE)). After the bacterial grew to an OD(600) of 0.4-0.6 in Terrific Broth containing 30 mg/L kanamycin at 37° C., induction was carried out at 18° C. using 0.5 mM IPTG and growth was continued at 18° C. for about 18 h. The bacteria were harvested by centrifugation and the obtained pellet was either stored at −80° C. or used freshly for the subsequent steps.
(§1) RALA mutant proteins were produced with one mutation to cysteine at the 23 position (G23C) relative to SEQ ID NO: 8 when optimally aligned. KRAS mutant proteins were produced with one mutation to cysteine at the 12 position (G12C) relative to SEQ ID NO: 1 when optimally aligned. The RALA and KRAS mutants were tested for reactivity (e.g., covalent modification of the mutant) with a panel of competition probes that bind the Switch II binding pocket and covalently modify the substituted amino acid with appropriately placed electrophiles based on modeling/docking studies. One such inhibitor covalently bound to RAS (via G12) is depicted in FIG. 2. Screening was carried out by mass spectrometry on an Agilent RapidFire or ThermoScientific Q Exactive system.

Test [2] has as its target T2, KRAS G12C (Homo sapiens, UniProt P01116, G12C).
T2 construct: made in house
The experiment in a line: Rate constant of covalent reaction of competition probes with KRAS mutant (mass spectrometry). It is filed as binding. The method, then: as §1

For test [3], the target named is T3, KRAS D92C/G12D (Homo sapiens, UniProt P01116, D92C/G12D).
T3 construct: made in house
The experiment in a line: Covalent modification of KRAS mutant by competition probes (TOF mass spectrometry, Agilent RapidFire). It is filed as binding. The protocol:
(§2) KRAS mutant proteins were produced with one substituted amino acid selected from E62C, D92C, and H95C and with either glycine at the 12 position (WT) or an additional mutation to aspartic acid at the 12 position (G12D) relative to SEQ ID NO: 1 when optimally aligned. These mutations are depicted on an X-ray crystal structure in FIG. 2. These mutants were tested for reactivity (e.g., covalent modification of the KRAS mutant) with a panel of competition probes that bind the Switch II binding pocket and covalently modify the substituted amino acid with appropriately placed electrophiles based on modeling/docking studies. Screening was carried out by time-of-flight (TOF) mass spectrometry on an Agilent RapidFire system. […] Competition probe reactivity with the G12D mutant or other 12 position mutants may be optimized by iterative structural modification and testing.

The target of test [4] is T4, KRAS D92C/WT (Homo sapiens, UniProt P01116, D92C).
T4 construct: made in house
Described as above. It is filed as binding. The protocol:
as §2

The target of test [5] is T5, KRAS E62C/G12D (Homo sapiens, UniProt P01116, E62C/G12D).
T5 construct: made in house
The description is as above. It is filed as binding. The method, then: as §2

Test [6] deals with T6, KRAS E62C/WT (Homo sapiens, UniProt P01116, E62C).
T6 construct: made in house
Described as above. It is filed as binding. The method, then: as §2

Test [7] addresses T7, KRAS H95C/G12D (Homo sapiens, UniProt P01116, G12D/H95C).
T7 construct: made in house
Described as above. It is filed as binding. The method, then:
as §2

Test [8] concerns the target T8, KRAS H95C/WT (Homo sapiens, UniProt P01116, H95C).
T8 construct: made in house
Described as above. It is filed as binding. Particulars: probe 10 μM. The protocol: as §2

The target in test [9] is T9, K-Ras D92C (Homo sapiens, UniProt P01116, D92C).
T9 construct: made in house
The experiment in a line: QQQ mass spectrometry competition assay for K-Ras D92C binding using competition probe CP-008. The following applies: CP-008 (100 nM); test compound over a range of concentrations; incubated for 6 h; FIG. 6. The method, then:
The GDP-loaded K-Ras D92C protein (which also contains a histidine tag) was diluted in a HEPES containing assay buffer shortly before use in the QQQ-assay.
To start the assay an internal nonreactive control compound and competition probe compound (CP-008) were added to the protein solution to form a master mix. The master mix was quickly dispersed in a 96-well plate followed by addition a DMSO stock of the compound of interest. […]
To quench the reaction, the reaction mix was transferred to 2% of formic acid in water (0.2% final in the quenched reaction) in a second plate. After sealing the second plate and quick centrifugation the samples were frozen at −80° C.
The frozen samples were sent on dry ice to Pure Honey Technologies for QQQ-quantitation to determine probe and internal control compound amount in each well. For analysis of the obtained data, the ratio of probe to internal control compound was calculated for each well. The assay window was determined by a negative control (DMSO only, no inhibition) and a positive control (100 μM final of CP-008 at a time point where the probe is fully reacted with protein; assigned 100% inhibition) and allowed the calculation of inhibition of probe depletion by the compound of interest.

On to `C=CC(=O)N1CCN(c2ncnc3cc(Cl)c(-c4ccc(Br)cc4)cc23)CC1` [CP-015], for which the “Rate Constant for Reaction with Indicated Protein, RALA G23C” value (shortened to “Rate Constant for Reaction … RALA G23C”) in [1] was found to be 9.0 M⁻¹ s⁻¹.

For the molecule `C=CC(=O)N1CCN(c2ncnc3cc(Cl)c(-c4ccccc4Cl)cc23)CC1` [CP-011], the “Rate Constant for Reaction … RALA G23C” value in test [1] came to 5.0 M⁻¹ s⁻¹. Moreover, the “Rate Constant for Reaction with Indicated Protein, KRAS G12C” value (shortened to “Rate Constant for Reaction … KRAS G12C”) in [2] amounted to 1.1 M⁻¹ s⁻¹.

As to `C=CS(=O)(=O)NC1CCCN(c2nc(N3CCN(C(C)=O)CC3)c3cc(Cl)c(-c4c(O)cccc4F)c(F)c3n2)C1` (centres unmarked) [CP-001], the “% Covalent Modification with Indicated Protein at 6 hr, D92C/G12D” value in test [3] (probe 30 μM) is 12%. Besides, in test [4] (probe 30 μM), the “% Covalent Modification with Indicated Protein at 6 hr, D92C/WT” value (“% Covalent Modification … D92C/WT” below) is on record as 97%. Besides, in test [5] (probe 30 μM), the “% Covalent Modification with Indicated Protein at 6 hr, E62C/G12D” value (from here on “% Covalent Modification … E62C/G12D”) worked out at 4%. For the same molecule, the “% Covalent Modification with Indicated Protein at 6 hr, E62C/WT” value (“% Covalent Modification … E62C/WT” for short) in test [6] (probe 30 μM) is reported as 72%. Besides, in test [7] (probe 30 μM), the “% Covalent Modification with Indicated Protein at 6 hr, H95C/G12D” value (shortened to “% Covalent Modification … H95C/G12D”) worked out at 60%.

In the case of `C=CS(=O)(=O)N1CCC(Nc2nc(N3CCN(C(C)=O)CC3)c3cc(Cl)c(-c4c(O)cccc4F)c(F)c3n2)C1` (centres unmarked) [CP-007], in test [3] (probe 10 μM), the “% Covalent Modification with Indicated Protein at 6 hr, D92C/G12D” value came to 29%. In addition, the “% Covalent Modification … D92C/WT” value in test [4] (probe 10 μM) is on record as 99%. The “% Covalent Modification … E62C/G12D” value in test [5] (probe 10 μM) came out at 19%. The “% Covalent Modification … E62C/WT” value in test [6] (probe 10 μM) was 96%. For the same molecule, in test [7] (probe 10 μM), the “% Covalent Modification … H95C/G12D” value stood at 17%. Moreover, the “% Covalent Modification with Indicated Protein at 6 hr, H95C/WT” value in test [8] worked out at 43%.

Regarding `CC(=O)N1CCN(c2nc(OCCCN(C)C)nc3c(F)c(-c4cc(O)cc5ccccc45)c(Cl)cc23)CC1` [CP-023, 1-(4-(6-chloro-2-(3-(dimethylamino)propoxy)-8-fluoro-7-(3-hydroxynaphthalen-1-yl)quinazolin-4-yl)piperazin-1-yl)ethanone], the “inhibition of competition probe (CP-008) depletion by D92C K-Ras” value in [9] is on record as “less CP-008 is bound to K-Ras”.

For the molecule `C=CC(=O)N1CCN(c2ncnc3cc(Cl)c(-c4ccc(Cl)s4)cc23)CC1` [CP-019], the “Rate Constant for Reaction … RALA G23C” value in [1] came out at 6.3 M⁻¹ s⁻¹.

`C=CC(=O)NC1CCCN(c2nc(N3CCN(C(C)=O)CC3)c3cc(Cl)c(-c4c(O)cccc4F)c(F)c3n2)C1` (centres unmarked) [CP-002]: the “% Covalent Modification … D92C/WT” value in test [4] (probe 100 μM) worked out at 2%. In addition, in test [5] (probe 100 μM), the “% Covalent Modification … E62C/G12D” value was found to be 1%. In addition, the “% Covalent Modification … E62C/WT” value in test [6] (probe 100 μM) is on record as 6%. Also, the “% Covalent Modification … H95C/G12D” value in test [7] (probe 100 μM) stood at 5%.

For `C=CC(=O)NC1CCN(c2nc(N3CCN(C(C)=O)CC3)c3cc(Cl)c(-c4c(O)cccc4F)c(F)c3n2)C1` (centres unmarked) [CP-004], the “% Covalent Modification … D92C/WT” value in [4] (probe 100 μM) is 4%. Also, the “% Covalent Modification … E62C/G12D” value in test [5] (probe 100 μM) amounted to 1%. For the same molecule, the “% Covalent Modification … E62C/WT” value in test [6] (probe 100 μM) came to 3%. Besides, in test [7] (probe 100 μM), the “% Covalent Modification … H95C/G12D” value worked out at 2%.

As for `C=CC(=O)N1CCN(C(=O)c2cc(-c3cc(Cl)ccc3Cl)c(Cl)cc2O)CC1` [CP-010], in test [1], the “Rate Constant for Reaction … RALA G23C” value turned out to be 2.9 M⁻¹ s⁻¹. The “Rate Constant for Reaction … KRAS G12C” value in [2] came out at 2.3 M⁻¹ s⁻¹.

For `C=CC(=O)N1CCN(c2ncnc3c(F)c(-c4c(O)cccc4F)c(Cl)cc23)CC1` [CP-012], in [1], the “Rate Constant for Reaction … RALA G23C” value was less than 1 M⁻¹ s⁻¹. In addition, the “Rate Constant for Reaction … KRAS G12C” value in test [2] worked out at 310 M⁻¹ s⁻¹.

With `C=CC(=O)N1CCN(c2ncnc3cc(Cl)c(-c4ccc(C)s4)cc23)CC1` [CP-020], the “Rate Constant for Reaction … RALA G23C” value in test [1] came to 19 M⁻¹ s⁻¹.
